From US11000537B2, “Composition comprising novel ginsenoside” (AMOREPACIFIC CORPORATION, priority 2018, dated 2021)

Columns and labels:
Format in all cases: cell-based
LDL receptor (LDLR) = test: LDL receptor gene expression in HepG2 (qPCR); conditions: 24 hours
[1] = system: FAS (Fatty acid synthase); test: FAS gene expression in HepG2 (qPCR); conditions: 24 hours
Procedure: (§1) The hepatocyte cell line HepG2 purchased from the International Center for Biological Resources (ATCC) were placed in Dulbecco's Modified Eagle's Medium (Sigma) to which 10% fetal bovine serum (Hyclone) and 1% penicillin/streptomycin (Sigma) were added, and cultured in a 5% CO2 incubator. […] After 24 hours of treatment, cells were collected, RNA was extracted using Trizol™ reagent (Thermo Fisher Scientific), and cDNA was synthesized using RevertAid™ 1st strand cDNA synthesis kit (Thermo Fisher Scientific). Bio-Rad's CFX96 real-time quantitative PCR (qPCR) instrument was used to observe the expression of the genes SREBP1c (sterol-regulatory element binding protein 1c), ACC (acetyl-CoA carboxylase) and FAS (Fatty acid synthase), which induces fat synthesis or accumulation.

[2] = system: ACC (acetyl-CoA carboxylase); test: ACC gene expression in HepG2 (qPCR); conditions: 24 hours
Procedure: The hepatocyte cell line HepG2 purchased from the International Center for Biological Resources (ATCC) were placed in Dulbecco's Modified Eagle's Medium (Sigma) to which 10% fetal bovine serum (Hyclone) and 1% penicillin/streptomycin (Sigma) were added, and cultured in a 5% CO2 incubator. As a positive control, fenofibrate (FF, Sigma), which is used as an antihyperlipidemic drug, was used, and 7 kinds of ginsenosides (GS #01-GS #06, GS #10; 10 μM each) extracted from Ginseng seed were used for the experiment. After 24 hours of treatment, cells were collected, RNA was extracted using Trizol™ reagent (Thermo Fisher Scientific), and cDNA was synthesized using RevertAid™ 1st strand cDNA synthesis kit (Thermo Fisher Scientific). Bio-Rad's CFX96 real-time quantitative PCR (qPCR) instrument was used to observe the expression of the genes SREBP1c (sterol-regulatory element binding protein 1c), ACC (acetyl-CoA carboxylase) and FAS (Fatty acid synthase), which induces fat synthesis or accumulation.

[3] = system: human umbilical vein endothelial cells (HUVEC); test: nitric oxide (NO) production in vascular endothelial cells
Source text: Since nitric oxide is made by […] nitric oxide synthase (eNOS), in this experiment, it was confirmed whether the novel ginsenoside GS #10 of the example of the present disclosure can promote the production of nitric oxide through eNOS activity control in vascular endothelial cells. Specifically, the human umbilical vein endothelial cells (HUVEC) were purchased from the International Center for Biological Resources (ATCC) and cultured, and then the amount of nitric oxide (NO) produced by treating the novel ginsenoside GS #10 at a concentration of 1 to 10 μg/ml was measured.

[4] = system: HMG-CoA (3-hydroxy-3-methyl-glutaryl-coenzyme A) reductase; test: HMG-CoA reductase gene expression in HepG2 (qPCR); conditions: 24 hours
3T1-L1 adipocytes = test: glucose uptake (glucose transport) in differentiated adipocytes; conditions: 10 μM, FIG. 13
Procedure: 3T1-L1 adipocytes (ATCC) were purchased, and 10% bovine calf serum (Hyclone) and 1% penicillin/streptomycin (Sigma) were added to a Dulbecco's Modified Eagle's Medium (Sigma) and cultured in a 5% CO2 culture medium. In order to differentiate preadipocyte cells into adipocytes, a culture plate was filled with cells and cultured for 48 hours. The cells were then replaced in a DMEM medium to which 10% fetal bovine serum (FBS) (Hyclone), 0.5 mM 3-isobutyl-1-methylxanthine (Sigma), 1 μM dexamethasone (Sigma), 5 μg/ml insulin (Sigma), and 1% penicillin/streptomycin were added and cultured for another 48 hours. Thereafter, the cells were further cultured for 14 days while being replaced in a medium containing 10% FBS, 5 μg/ml insulin, and 1% penicillin/streptomycin at two-day intervals to obtain fully differentiated adipocytes. […] As a positive control for measuring glucose uptake in blood, Metformin (Sigma; 10 μM), which is used as a diabetic therapeutic agent, was used, and novel ginsenoside GS #10, which is an example of the present disclosure, isolated from Ginseng seed extract and ginsenosides GS #01-GS #06, which are comparative examples of the present disclosure, were treated with 10 μM each. In addition, both insulin-dependent/independent glucose transport capacity was measured by treating insulin together, which may promote glucose uptake.

[5] = system: SREBP1c (sterol-regulatory element binding protein 1c); test: SREBP1c gene expression in HepG2 (qPCR); conditions: 24 hours
Procedure: as §1

[6] = system: human umbilical vein endothelial cells (HUVECs); test: survival rate of vascular endothelial cells (MTT)
Procedure: In this experiment, it was confirmed whether the novel ginsenoside GS #10 of an embodiment of the present disclosure can increase the survival rate of vascular endothelial cells. Specifically, human umbilical vein endothelial cells (HUVECs) were purchased from the International Center for Biological Resources (ATCC) and cultured, and then the novel ginsenoside GS #10 was treated at a concentration of 1-10 μg/ml and MTT(3-(4,5-dimethylthiazol-2-yl)-2,5-diphenyltetrazolium bromide) analysis was performed to observe cell death.

HepG2 cells = test: triglyceride accumulation in hepatocytes (Triglyceride Assay Kit)
Source text: In addition, in order to investigate whether inhibition of the expression of fat synthesis-related genes by ginsenoside derived from Ginseng seed may be involved in actual fat synthesis and accumulation, HepG2 cells were used to treat seven ginsenosides (GS #01-GS #06, GS #10; […]) and the control group (fenofibrate, FF) in the same manner as above, and then the Triglyceride Assay Kit (Abcam) was used to measure the amount of triglyceride (TG) accumulated in hepatocytes.

CC1(C)C(=O)CC[C@@]2(C)C1[C@@H](O[C@H]1OC(CO)[C@H](O)C(O)C1O[C@H]1OC(CO)[C@H](O)C(O)C1O)C[C@]1(C)C2C[C@@H](O)C2C([C@]3(C)CC[C@H](C(C)(C)O)O3)CC[C@]21C (stereo partly drawn) [GS #10, (20S,24R)-6-O-β-D-glucopyranosyl(1→2)-β-D-glucopyranoside-dammar-3-one-20,24-epoxy-6a,12b,25-triol]
increase of LDLR expression level compared to the control (−) (LDL receptor (LDLR); 10 μM, HepG2, FIG. 29): more than 2 times | promotion of intracellular transport (LDLR expression) (LDL receptor (LDLR); 1 and 10 μM, compared with Rg1, Rg3, Rb1, FIG. 32): most effective in inhibiting cholesterol synthesis and promoting intracellular transport | FAS expression inhibitory effect ([1]; 10 μM, HepG2, FIG. 20): significantly higher expression inhibitory effect | FAS expression inhibitory effect ([1]; 1, 10 μM, compared with Rg1, Rg3, Rb1, FIG. 25): far superior in lipid metabolism inhibitory effect | ACC expression inhibitory effect ([2]; 10 μM, HepG2, FIG. 19): significantly higher expression inhibitory effect | ACC expression inhibitory effect ([2]; 1, 10 μM, compared with Rg1, Rg3, Rb1, FIG. 24): far superior in lipid metabolism inhibitory effect | NO production efficacy relative to ginsenoside Re (GS #03) ([3]; 10 μg/ml, HUVEC, FIG. 43): ≥ 2 times | NO production-increasing effect ([3]; 10 μg/ml, HUVEC, compared with GS #01 to GS #06, FIG. 43): significantly greater NO production-increasing effect | increased production of nitric oxide (NO) ([3]; 10 μg/ml, compared with Rg1, Rg3, Rb1, FIG. 46): far superior | nitric oxide (NO) production ([3]; 1 to 10 μg/ml, HUVEC, FIG. 42): increase NO production in a concentration-dependent manner | expression of HMG-CoA reductase ([4]; 10 μM, HepG2, FIG. 28): most excellent efficacy of inhibiting the expression | inhibition of cholesterol synthesis (HMG-CoA reductase expression) ([4]; 1 and 10 μM, compared with Rg1, Rg3, Rb1, FIG. 31): most effective in inhibiting cholesterol synthesis | glucose transport promotion (3T1-L1 adipocytes; combined with insulin (+insulin)): the glucose transport is further increased as compared with the insulin-only treatment group | glucose transport promotion (3T1-L1 adipocytes; material-only treatment (−insulin)): statistically significant glucose transport promotion | SREBP1c expression inhibitory effect ([5]; 10 μM, HepG2, FIG. 18): significantly higher expression inhibitory effect | SREBP1c expression inhibitory effect ([5]; 1, 10 μM, compared with Rg1, Rg3, Rb1, FIG. 23): far superior in lipid metabolism inhibitory effect | survival rate-increasing effect of vascular endothelial cells ([6]; 10 μg/ml, MTT, compared with GS #01-GS #06, FIG. 45): highest survival rate-increasing effect of vascular endothelial cells | increased survival rate of vascular endothelial cells (HUVEC) ([6]; 10 μg/ml, compared with Rg1, Rg3, Rb1, FIG. 47): far superior | survival rate of HUVEC ([6]; 1-10 μg/ml, MTT, FIG. 44): increase the survival rate of HUVEC regardless of the concentration | inhibitory effect of lipid (triglyceride) accumulation in hepatocytes (HepG2 cells; 10 μM, HepG2, FIG. 21): most excellent inhibitory effect of lipid accumulation in hepatocytes | inhibition of triglyceride accumulated in hepatocytes (HepG2 cells; 1, 10 μM, compared with Rg1, Rg3, Rb1, FIG. 26): far superior in lipid metabolism inhibitory effect
